From patent US20060069132A1, “Azolecarboxamide herbicides” (priority 2004, published 2006)

What was measured:
[1] = system: small flower umbrella sedge; assay: Test B flooded paddy test; format: in vivo, Cyperus difformis; conditions: 1000 g ai/ha, visual rating, scale 0 to 100 (0 no effect, 100 complete control), 13 to 15 days
In short: (§1)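 Postemergence plants were sprayed with formulated test chemicals at 2 to 18 cm height (1- to 4-leaf stage); paddy species were grown to the 2-leaf stage. After 13 to 15 days in a greenhouse, injury was rated visually against untreated controls on a 0–100 scale (0 = no effect, 100 = complete control).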

pigweed = assay: Test B pre-/postemergence herbicide test; format: in vivo, Amaranthus retroflexus; conditions: for Pigweed plant response rating: postemergence, visual rating
In short: (§2)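 Evaluation is visual, comparing treated with control plants on a scale where 0 means no effect and 100 means full control. Treatments were preemergence, or postemergence on seedlings 2–18 cm tall, and held 13–15 days in the greenhouse.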

barnyardgrass [2] = assay: Test B flooded paddy test; format: in vivo, Echinochloa crus-galli; conditions: 1000 g ai/ha, visual rating, scale 0 to 100 (0 no effect, 100 complete control), 13 to 15 days
In short: as §1

velvetleaf [3] = assay: Test A pre-/postemergence herbicide test; format: in vivo, Abutilon theophrasti
In short: (§3)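 Seeds sown in sandy loam received a preemergence directed soil spray of compound in non-phytotoxic solvent with surfactant; postemergence plants (2–10 cm, one- to two-leaf stage) were sprayed to runoff at the same time. After ~10 days in greenhouse, injury was rated visually versus untreated controls (0 = no effect, 100 = complete control).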

morningglory [4] = assay: Test B pre-/postemergence herbicide test; format: in vivo, Ipomoea coccinea; conditions: for Morningglory plant response rating: postemergence, visual rating
In short: (§4)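 Seeds were planted and treated preemergence with compounds formulated in a non-phytotoxic solvent mixture containing surfactant, while plants at the 1- to 4-leaf stage (2 to 18 cm) received postemergence sprays. Flooded paddy plants were grown to the 2-leaf stage. After 13 to 15 days in a greenhouse, injury was visually rated 0–100 against untreated controls.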

Surinam grass = assay: Test B pre-/postemergence herbicide test; format: in vivo, Urochloa decumbens; conditions: for Surinam Grass plant response rating: postemergence, visual rating
In short: as §2

large crabgrass [5] = assay: Test A pre-/postemergence herbicide test; format: in vivo, Digitaria sanguinalis
In short: as §3

cocklebur = assay: Test B pre-/postemergence herbicide test; format: in vivo, Xanthium strumarium
In short: as §4

blackgrass = assay: Test B postemergence herbicide test; format: in vivo, Alopecurus myosuroides; conditions: scale 0 (no effect) to 100 (complete control); for Plant response rating, Blackgrass: Postemergence, 500 g ai/ha, visual rating after 13 to 15 days; for Blackgrass plant response rating: postemergence, 125 g ai/ha, visual rating
In short: as §1

large crabgrass [6] = assay: Test B pre-/postemergence herbicide test; format: in vivo, Digitaria sanguinalis
In short: as §2

rice [7] = assay: Test B pre-/postemergence herbicide test; format: in vivo, Oryza sativa; conditions: preemergence
In short: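 Plants compared with untreated controls 13–15 days post-treatment and given a visual 0–100 injury score. Applications: preemergence to seeds; postemergence at 1- to 4-leaf (2–18 cm); paddy species flooded, 2-leaf stage. Vehicle non-phytotoxic, surfactant included.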

wild oat = assay: Test B postemergence herbicide test; format: in vivo, Avena fatua; conditions: scale 0 (no effect) to 100 (complete control); for Plant response rating, Oat, Wild: Postemergence, 500 g ai/ha, visual rating after 13 to 15 days; for Oat, Wild plant response rating: postemergence, 125 g ai/ha, visual rating
In short: (§5)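 Scale 0–100: zero equals no visible effect, 100 complete control, judged by eye relative to controls. Timing: 13 to 15 days in greenhouse post-treatment. Growth stage at spraying: two leaves (paddy) or one to four leaves, 2–18 cm (postemergence).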

ducksalad = assay: Test B flooded paddy test; format: in vivo, Heteranthera limosa; conditions: 1000 g ai/ha, visual rating, scale 0 to 100 (0 no effect, 100 complete control), 13 to 15 days
In short: as §1

redroot pigweed = assay: Test A pre-/postemergence herbicide test; format: in vivo, Amaranthus retroflexus
In short: as §3

rice [8] = assay: Test B flooded paddy test; format: in vivo, Oryza sativa; conditions: 1000 g ai/ha, visual rating, scale 0 to 100 (0 no effect, 100 complete control), 13 to 15 days
In short: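 Each value is a visual 0–100 response rating taken against controls 13 to 15 days after treatment in the greenhouse. Plants received formulated chemical postemergence at the 1- to 4-leaf stage or, in flooded paddy, at the 2-leaf stage.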

wheat = assay: Test B postemergence herbicide test; format: in vivo, Triticum aestivum; set-up: key to Wheat plant response rating: 0 = no effect, 100 = complete control; conditions: scale 0 (no effect) to 100 (complete control); for Plant response rating, Wheat: Postemergence, 500 g ai/ha, visual rating after 13 to 15 days; for Wheat plant response rating: postemergence, 125 g ai/ha, visual rating
In short: as §5

barnyardgrass [9] = assay: Test B pre-/postemergence herbicide test; format: in vivo, Echinochloa crus-galli
In short: as §4

corn = assay: Test B pre-/postemergence herbicide test; format: in vivo, Zea mays
In short: as §2

velvetleaf [10] = assay: Test B pre-/postemergence herbicide test; format: in vivo, Abutilon theophrasti; conditions: for Velvetleaf plant response rating: postemergence, visual rating
In short: as §2

giant foxtail [11] = assay: Test A pre-/postemergence herbicide test; format: in vivo, Setaria faberi
In short: as §3

giant foxtail [12] = assay: Test B pre-/postemergence herbicide test; format: in vivo, Setaria faberi
In short: as §2

lambsquarters = assay: Test B pre-/postemergence herbicide test; format: in vivo, Chenopodium album; conditions: for Lambsquarters plant response rating: postemergence, visual rating
In short: as §2

barnyardgrass [13] = assay: Test A pre-/postemergence herbicide test; format: in vivo, Echinochloa crus-galli
In short: as §3

morningglory [14] = assay: Test A pre-/postemergence herbicide test; format: in vivo, Ipomoea spp.
In short: as §3

[15] = Postemergence, 500 g ai/ha, visual rating after 13 to 15 days, scale 0 (no effect) to 100 (complete control)
[16] = 125 g ai/ha, scale 0 (no effect) to 100 (complete control)
[17] = preemergence, 125 g ai/ha, 0 to 100 scale, 0 is no effect, 100 is complete control
[18] = Postemergence, 500 g ai/ha, 0 to 100 scale, 0 no effect, 100 complete control
[19] = Postemergence, 2000 g ai/ha, 0 to 100 scale, 0 no effect, 100 complete control
[20] = Preemergence, 500 g ai/ha, visual rating, 0 to 100 scale (0 no effect, 100 complete control)
[21] = Preemergence, 2000 g ai/ha, visual rating, 0 to 100 scale (0 no effect, 100 complete control)
[22] = Preemergence, 2000 g ai/ha, 0 to 100 scale, 0 no effect, 100 complete control
[23] = Preemergence, 500 g ai/ha, scale 0 to 100
[24] = postemergence, 125 g ai/ha, visual rating, scale 0 (no effect) to 100 (complete control)
[25] = 125 g ai/ha, 0 to 100 scale, 0 is no effect, 100 is complete control
[26] = 500 g ai/ha, visual rating 0-100, 0 no effect, 100 complete control, preemergence

CCOC(=O)c1cc(NC(=O)c2cc(C(C)(C)C)nn2CC)ccc1F [Compound 89]
15: Plant response rating, Morningglory (morningglory [14]; [19])
25: Plant response rating, Crabgrass, Large (large crabgrass [5]; [19])
80: Crabgrass, Large plant response rating (large crabgrass [6]; [23])
70: Cocklebur plant response rating (cocklebur; [24])
20: Pigweed plant response rating (pigweed; [16]) | Velvetleaf plant response rating (velvetleaf [3]; [18]) | Plant response rating, Velvetleaf (velvetleaf [3]; [19]) | Morningglory plant response rating (morningglory [4]; [16]) | Plant response rating, Surinam Grass (Surinam grass; [15]) | Crabgrass, Large plant response rating (large crabgrass [5]; [18]) | Plant response rating, Crabgrass, Large (large crabgrass [6]; [15]) | Oat, Wild plant response rating (wild oat) | Pigweed plant response rating (redroot pigweed; [18]) | Plant response rating, Wheat (wheat) | Wheat plant response rating (wheat) | Plant response rating, Barnyardgrass (barnyardgrass [9]; [15]) | Plant response rating, Corn (corn; [15]) | Foxtail, Giant plant response rating (giant foxtail [11]; [18]) | Plant response rating, Foxtail, Giant (giant foxtail [11]; [19]) | Plant response rating, Foxtail, Giant (giant foxtail [12]; [15]) | Foxtail, Giant plant response rating (giant foxtail [12]; [24]) | Barnyardgrass plant response rating (barnyardgrass [13]; [18]) | Plant response rating, Barnyardgrass (barnyardgrass [13]; [19]) | Morningglory plant response rating (morningglory [14]; [18])
30: Plant response rating, Oat, Wild (wild oat) | Plant response rating, Pigweed (redroot pigweed; [19]) | Velvetleaf plant response rating (velvetleaf [10]; [16]) | Lambsquarters plant response rating (lambsquarters; [16])
90: Plant response rating, Cocklebur (cocklebur; [15])
50: Plant response rating, Morningglory (morningglory [4]; [15]) | Plant response rating, Velvetleaf (velvetleaf [10]; [15])
60: Sedge, Umbrella plant response rating [1] | Plant response rating, Lambsquarters (lambsquarters; [15])
40: Plant response rating, Pigweed (pigweed; [15])
0: Plant response rating, Pigweed (pigweed; [17]) | Velvetleaf plant response rating (velvetleaf [3]; [20]) | Plant response rating, Morningglory (morningglory [4]; [17]) | Plant response rating, Surinam Grass (Surinam grass; [17]) | Crabgrass, Large plant response rating (large crabgrass [5]; [20]) | Crabgrass, Large plant response rating (large crabgrass [5]; [22]) | Cocklebur plant response rating (cocklebur; [23]) | Plant response rating, Cocklebur (cocklebur; [17]) | Blackgrass plant response rating (blackgrass) | Plant response rating, Crabgrass, Large (large crabgrass [6]; [17]) | Plant response rating, Rice (rice [7]; [25]) | Ducksalad plant response rating (ducksalad) | Pigweed plant response rating (redroot pigweed; [20]) | Barnyardgrass plant response rating (barnyardgrass [9]; [23]) | Plant response rating, Barnyardgrass (barnyardgrass [9]; [17]) | Corn plant response rating (corn; [23]) | Plant response rating, Corn (corn; [17]) | Plant response rating, Velvetleaf (velvetleaf [10]; [17]) | Foxtail, Giant plant response rating (giant foxtail [11]; [20]) | Foxtail, Giant plant response rating (giant foxtail [11]; [22]) | Foxtail, Giant plant response rating (giant foxtail [12]; [23]) | Plant response rating, Foxtail, Giant (giant foxtail [12]; [17]) | Plant response rating, Lambsquarters (lambsquarters; [17]) | Barnyardgrass plant response rating (barnyardgrass [13]; [20]) | Barnyardgrass plant response rating (barnyardgrass [13]; [22]) | Morningglory plant response rating (morningglory [14]; [20])
10: Barnyardgrass plant response rating (barnyardgrass [2]) | Velvetleaf plant response rating (velvetleaf [3]; [21]) | Surinam Grass plant response rating (Surinam grass; [16]) | Plant response rating, Blackgrass (blackgrass) | Crabgrass, Large plant response rating (large crabgrass [6]; [24]) | Pigweed plant response rating (redroot pigweed; [22]) | Rice plant response rating (rice [8]) | Barnyardgrass plant response rating (barnyardgrass [9]; [24]) | Corn plant response rating (corn; [24]) | Morningglory plant response rating (morningglory [14]; [22])

CCn1nc(C(C)(C)C)cc1C(=O)Nc1cccc(C(=O)OCCF)c1C [Compound 91]
60: Sedge, Umbrella plant response rating [1]
20: Velvetleaf plant response rating (velvetleaf [3]; [21]) | Plant response rating, Crabgrass, Large (large crabgrass [5]; [19]) | Plant response rating, Pigweed (redroot pigweed; [19]) | Lambsquarters plant response rating (lambsquarters; [16])
0: Plant response rating, Pigweed (pigweed; [26]) | Plant response rating, Pigweed (pigweed; [17]) | Barnyardgrass plant response rating (barnyardgrass [2]) | Plant response rating, Morningglory (morningglory [4]; [15]) | Morningglory plant response rating (morningglory [4]; [16]) | Plant response rating, Morningglory (morningglory [4]; [17]) | Crabgrass, Large plant response rating (large crabgrass [5]; [20]) | Cocklebur plant response rating (cocklebur; [24]) | Plant response rating, Blackgrass (blackgrass) | Blackgrass plant response rating (blackgrass) | Crabgrass, Large plant response rating (large crabgrass [6]; [24]) | Plant response rating, Rice (rice [7]; [25]) | Oat, Wild plant response rating (wild oat) | Pigweed plant response rating (redroot pigweed; [18]) | Pigweed plant response rating (redroot pigweed; [20]) | Wheat plant response rating (wheat) | Plant response rating, Barnyardgrass (barnyardgrass [9]; [15]) | Barnyardgrass plant response rating (barnyardgrass [9]; [24]) | Plant response rating, Barnyardgrass (barnyardgrass [9]; [17]) | Plant response rating, Corn (corn; [17]) | Velvetleaf plant response rating (velvetleaf [10]; [16]) | Foxtail, Giant plant response rating (giant foxtail [11]; [18]) | Plant response rating, Foxtail, Giant (giant foxtail [11]; [19]) | Foxtail, Giant plant response rating (giant foxtail [11]; [20]) | Plant response rating, Foxtail, Giant (giant foxtail [12]; [15]) | Foxtail, Giant plant response rating (giant foxtail [12]; [24]) | Plant response rating, Lambsquarters (lambsquarters; [17]) | Barnyardgrass plant response rating (barnyardgrass [13]; [18]) | Plant response rating, Barnyardgrass (barnyardgrass [13]; [19]) | Barnyardgrass plant response rating (barnyardgrass [13]; [20]) | Morningglory plant response rating (morningglory [14]; [18]) | Plant response rating, Morningglory (morningglory [14]; [19]) | Morningglory plant response rating (morningglory [14]; [20])
35: Crabgrass, Large plant response rating (large crabgrass [5]; [22])
10: Plant response rating, Pigweed (pigweed; [15]) | Pigweed plant response rating (pigweed; [16]) | Plant response rating, Velvetleaf (velvetleaf [3]; [19]) | Plant response rating, Morningglory (morningglory [4]; [26]) | Plant response rating, Surinam Grass (Surinam grass; [15]) | Surinam Grass plant response rating (Surinam grass; [16]) | Crabgrass, Large plant response rating (large crabgrass [5]; [18]) | Plant response rating, Cocklebur (cocklebur; [15]) | Plant response rating, Crabgrass, Large (large crabgrass [6]; [15]) | Plant response rating, Rice (rice [7]; 500 g ai/ha, visual rating 0-100, 0 no effect, 100 complete control) | Plant response rating, Oat, Wild (wild oat) | Rice plant response rating (rice [8]) | Plant response rating, Wheat (wheat) | Plant response rating, Barnyardgrass (barnyardgrass [9]; [26]) | Plant response rating, Corn (corn; [26]) | Plant response rating, Corn (corn; [15]) | Corn plant response rating (corn; [24]) | Plant response rating, Velvetleaf (velvetleaf [10]; [15]) | Plant response rating, Foxtail, Giant (giant foxtail [12]; [26]) | Plant response rating, Foxtail, Giant (giant foxtail [12]; [17]) | Morningglory plant response rating (morningglory [14]; [22])
30: Ducksalad plant response rating (ducksalad) | Foxtail, Giant plant response rating (giant foxtail [11]; [22]) | Plant response rating, Lambsquarters (lambsquarters; [26]) | Plant response rating, Lambsquarters (lambsquarters; [15])
55: Pigweed plant response rating (redroot pigweed; [22])
15: Barnyardgrass plant response rating (barnyardgrass [13]; [22])
5: Velvetleaf plant response rating (velvetleaf [3]; [18]) | Velvetleaf plant response rating (velvetleaf [3]; [20])
